# Assay results as given in patent US8097752B2, “Antiprotozoal ring-substituted phospholipids” (priority 2002, dated 2012).
# Legend:
# [1] = tested on: promastigote forms of Leishmania infantum; assay: In vitro antileishmanial activity in promastigote cultures (MTT), L. infantum; type: cell-based, Leishmania infantum MHOM/TN/80/IPT1/LEM 235; settings: Leishmania infantum, promastigotes, 72 h incubation, mean ± SEM, n = 3-4 (each run in duplicate), read-out: IC50 (μM) L. infantum MON 235
# Description: (§1) Determination of in Vitro Antileishmanial Activity in Promastigote Cultures.
# (§2) The effect of the phospholipids according to the present invention against the promastigote forms of Leishmania donovani and Leishmania infantum was evaluated using an MTT (3-(4,5-dimethylthiazol-2yl)-2,5-diphenyltetrazolium bromide)-based enzymatic method as a marker of cell viability and was compared with that of the ether phospholipid hexadecylphosphocholine (Miltefosine). Thus, promastigotes of Leishmania infantum MHOM/TN/80/IPT1/LEM 235 and Leishmania donovani MHOM/IN/80/DD8/LEM 703, were grown in RPMI 1640 supplemented with 10% FCS, L. glutamine and antibiotics, at 26° C. All new compounds were dissolved in DMSO to a final concentration of 9.625 mM and linear 3-fold dilutions were done in the culture medium. 25 μL of promastigote culture at 5×10^5 cells/mL were cultured in a 96-well flat-bottom plate (Costar 3696), and incubated with 25 μL of different drug concentrations at 26° C. After 72 h, 10 μL of 5 mg/mL MTT in PBS (SIGMA M2128) were added and incubation was continued for 3 h. The reaction was stopped by the addition of 50 μL of 50% isopropanol, 10% SDS under gentle shacking for 30 min. Absorbance was measured at 550 nm with reference at 620 nm in a TRITURUS microplate reader.
# [2] = tested on: promastigote forms of Leishmania donovani; assay: In vitro antileishmanial activity in promastigote cultures (MTT), L. donovani; type: cell-based, Leishmania donovani MHOM/IN/80/DD8/LEM 703; settings: Leishmania donovani, promastigotes, 72 h incubation, mean ± SEM, n = 3-4 (each run in duplicate), read-out: IC50 (μM) L. donovani MON 703
# Description: as §1, §2
# [3] = tested on: cutaneous leishmaniasis; settings: phase I study; 100-150 mg for 3 weeks; cited from earlier work
# [4] = tested on: visceral leishmaniasis; settings: cited from earlier work
structure (smiles),measurement,setting,value
"CCCCCCCCCCCCCCCCOP(=O)([O-])OCC[N+](C)(C)C [Miltefosine, hexadecylphosphocholine]",IC50,[1],22.6 ± 3.6 µM
same,IC50,[2],23.7 ± 4.07 µM
same,cure rate,[3],94%
same,effectiveness in treating mice infected with visceral leishmaniasis,[4]; mice,highly effective
same,effectiveness of oral treatment relative to subcutaneous administration of pentostam,"[4]; oral miltefosine vs subcutaneous pentostam, mice infected with visceral leishmaniasis",600 fold
